Experimental findings from patent publication US20230073834A1, “SUBNORMOTHERMIC MACHINE PERFUSION OF ORGANS WITH CARBON MONOXIDE AND OXYGEN” (priority 2021, published 2023) are described below.

The test system of one assay is porcine DCD kidneys. The assay can be described thus: Ex vivo pulsatile perfusion of porcine DCD kidneys with CORM-401 in UW solution, then blood reperfusion. Further details: species or system large male Landrace pig. The method, then:
(§1) Methods: To stimulate donation after circulatory death condition, kidneys from large male Landrace pig were retrieved after 1-hour warm ischemia in situ by cross-clamping the renal pedicle. […] Kidneys were then reperfused with normothermic isogeneic porcine blood through oxygenated pulsatile perfusion for 10 hours. Urine was collected, vascular flow was assessed during reperfusion and histopathology was assessed after 10 hours of reperfusion. Sections were stained with H&E (not shown), TUNEL (FIG. 4A) and MSB (FIG. 4B) to quantify ATN (FIG. 4C), Apoptosis (brown spot), Hemorrhage (yellow stain), and neutrophil gelatinase-associated lipocalin (NGAL) to quantify kidney injury (FIG. 4D).

Another assay concerns Toll-like receptor 4. The assay can be described thus: Toll-like receptor suppression in CORM-401 perfused porcine DCD kidneys. Further details: species or system large male Landrace pig. The conditions noted are these: 200 μM CORM-401 perfused kidneys. As for the experimental part:
as §1

For the next assay, the system named is Toll-like receptor 2. The assay is described as above. The arrangement: species or system large male Landrace pig. The conditions noted are these: 200 μM CORM-401 perfused kidneys. As for the experimental part: as §1
A further assay deals with Toll-like receptor 6. The description is as above. The arrangement: species or system large male Landrace pig. Particulars: 200 μM CORM-401 perfused kidneys. The method, then:
as §1

Another assay relates to Pig kidneys. The assay can be described thus: Ex vivo subnormothermic (22° C.) pulsatile perfusion of pig kidneys with HBOC-201 versus blood or static cold storage. The method, then: Methods: Pig kidneys (n=5) were procured after 30 minutes of warm in situ ischemia by cross-clamping the renal arteries. Organs were flushed with histidine tryptophan ketoglutarate solution and subjected to static cold storage or pulsatile perfusion with an RM3 pump at 22° C. for 4 hours with HBOC-201 and blood. Thereafter, kidneys were reperfused with normothermic (37° C.) oxygenated blood for 4 hours. Blood and urine were subjected to biochemical analysis. Total urine output, urinary protein, albumin/creatinine ratio, flow rate, resistance were measured. Acute tubular necrosis, apoptosis, urinary kidney damage markers, neutrophil gelatinase-associated lipocalin 1, and interleukin 6 were also assessed.

[1] abbreviates: 200 μM, 4 h perfusion at 4° C. in UW solution, 10 h blood reperfusion, vs inactive CORM-401.
[2] abbreviates: 22° C. 4 hours perfusion, 4 hours reperfusion, as with blood.
[3] abbreviates: 22° C. 4 hours perfusion, 4 hours reperfusion, versus cold storage.

For `CN(CC(=O)O)C(=S)[S-].[C-]#[O+].[C-]#[O+].[C-]#[O+].[C-]#[O+].[Mn]` [CORM-401], the “intrarenal hemorrhage and vascular dotting during reperfusion” value in the assay with porcine DCD kidneys (200 μM, 4 h perfusion at 4° C. in UW solution, 10 h blood reperfusion) is on record as “prevented”. Moreover, in the assay with porcine DCD kidneys (setting [1]), the “ATN (acute tubular necrosis) in histopathologic sections” value is recorded as “reduced”; the “dUTP nick end labeling staining in histopathologic sections” value is reported as “reduced”; the “kidney damage markers (kidney damage marker-1 and neutrophil gelatinase-associated lipocalin)” value is listed as “attenuated”. Further, the urinary protein excretion entry with porcine DCD kidneys (200 μM, 4 h perfusion at 4° C. in University of Wisconsin solution, 10 h normothermic blood reperfusion, vs inactive CORM-401) was “reduced”. The “injury in porcine DCD kidneys” value in the assay with porcine DCD kidneys (1 h warm ischemia, perfusion with UW solution, 10 h blood reperfusion at 37° C.) was “reduced injury”. Besides, in the assay on Toll-like receptor 4, the “Toll-like receptor 4 suppression (anti-inflammatory action)” value was “suppressing”. Also, the “Toll-like receptor 2 suppression (anti-inflammatory action)” value with Toll-like receptor 2 is given as “suppressing”. Also, the “Toll-like receptor 6 suppression (anti-inflammatory action)” value with Toll-like receptor 6 was “suppressing”.
As to “HBOC-201: acellular hemoglobin-based oxygen carrier; blood free oxygen carrier (Hemopure)”, in the assay with Pig kidneys (22° C. 4 hours perfusion, 4 hours reperfusion with 37° C. oxygenated blood, compared with blood-treated kidneys), the “renal blood flow and function upon reperfusion” value is recorded as “similar”. For the same compound, in the assay with Pig kidneys (setting [2]), the IL6 levels result is recorded as “similarly reduced” and the Urinary damage markers result is on record as “similarly reduced”. In the assay with Pig kidneys (setting [3]), the “TUNEL staining (apoptosis)” value is “vastly reduced” and the “acute tubular necrosis scores” value is listed as “vastly reduced”. Besides, in the assay on Pig kidneys (22° C. 4 hours perfusion, 4 hours reperfusion, versus cold storage, listed as HBOC), the “TUNEL staining (apoptosis)” value is “reduces apoptosis”. The tissues oxygen saturation result with Pig kidneys (22° C., 4 hours perfusion, compared with blood) is listed as “equivalent to blood”.
